Results from article PMC2652713, “Molecular Blocking of CD23 Supports Its Role in the Pathogenesis of Arthritis” (PLoS ONE, 2009).

Legend:
[1] = system: human CD23+ monocyte-derived macrophages; assay: Nitrite (NO) generation by CD23-activated human macrophages, Griess reaction; format: cell-based; conditions: for iNOS-mediated NO generation: pre-incubation prior to CD23-mediated activation, mean±s.d. of 7 donors (Figure 2C)
Protocol: Figure 2 Inhibition of CD23-mediated activation of iNOS pathway in human macrophages by p30A. Human CD23^+ monocyte-derived macrophages were incubated with cross-linking CD23-McAb (20 µg/ml) alone or following 1 h pre-incubation with 10 µg/ml of various peptides. […] Expression of iNOS mRNA was compared to HPRT mRNA levels. (B) Inhibition of NO generation from human activated macrophages by synthetic peptides. Cell supernatants were collected 72 h following cell cultures and levels of nitrites were determined. […] Results are expressed as mean of 3 distinct donor cell preparations (SEM<20%). (C) Inducible NOS-mediated NO generation in human macrophages is decreased following pre-incubation with p30A or L-NIL prior to CD23-mediated activation. Results are expressed as mean±s.d. of 7 distinct donor cell preparations.
(§1) Monocytes or macrophages were activated through CD23 pathway: while monocytes/macrophages from RA patients express CD23, monocytes from healthy donors must be pre-activated to express surface CD23 as described. This pre-activation was obtained by incubation of healthy monocytes with recombinant human IL-4 (20 ng/ml) during 48 h at 37°C; After washing, all cell populations were tested by flow cytometry for their surface CD23 expression (>80% CD23^+) and then incubated in the presence of cross-linking CD23-MAb (clones 135 or DM2, IgG1k, 20 µg/ml) during 48–72 h, or IgE and anti-IgE as described, [17]. When indicated, peptides were added to the cells 2 h prior to their activation. Cells supernatants were then analyzed for their nitric oxide content (see below) and for the presence of cytokines: levels of TNF-α and IL-6 were determined in duplicates for each sample by a specific ELISA (R&D, Paris, France) while levels of IL-1β, IL-8 and IL-10 was determined using FlowCytomix Human Th1/Th2 Kit as recommended (Bender Medsystems, Vienna, Austria).
Culture supernatants (72 h) were assayed for the stable end-product of NO, NO2 ^− using the Griess reaction modified as detailed elsewhere. Inhibitory analog of L-arginine, L-NIL (N(6)-(1-iminoethyl)-L-lysine/2HCl, Coger SA, Paris, France) was used to inhibit iNOS-mediated NO generation. This method gave a sensitivity limit of 0.2 µM if low NO2 ^− medium (DMEM) was used. Total RNA was isolated as above from peritoneal macrophages. Reverse transcription-PCR was performed with an automatic thermal cycler (iCycler, Biorad) using the following specific primers: iNOS mRNA sense (5′-[…]-3′, exon 8) and iNOS mRNA antisense (5′-[…]-3′, exon 11). Hypoxanthine phosphoribosyltransferase (HPRT) mRNA sense (5′-[…]-3′) and HPRT mRNA antisense (5′-[…]- 3′) primers were used as controls. The iNOS messenger is represented by a 371-bp band, whereas a 496-bp band indicates the HPRT messenger.

[2] = system: healthy human PBL-derived macrophages; assay: Inflammatory mediator release from healthy human PBL-derived macrophages; format: cell-based; conditions: mean±s.d.
Protocol: Figure 4 Inhibition of inflammatory mediator generation from healthy human PBL-derived macrophages by p30A. Decreased levels of TNF-α (A), IL-6 (B), IL-1β, IL-8 and IL-10 (C) were detected in CD23-activated cells after incubation with p30A. […] Values are mean±s.d. of cells from 5 (IL-6, TNF-α) or 2 (IL-1β, IL-8, IL-10) different donors.
as §1

[3] = system: adjuvant-induced arthritis in rats; assay: Adjuvant-induced arthritis (AIA) clinical score in rats; format: in vivo, rat, Female Lewis; conditions: AIA rats; pCtl 100 mg/rat
Protocol: Figure 6 Inhibition of in vitro and in vivo inflammatory responses in rats by p30A peptide. (A) Rat peritoneal macrophages were activated via CD23 antigens with/without p30A, L-NIL or pCtl. Cell supernatants were collected 48 h later and nitrite levels were quantified. Values are mean±s.d. of cells from 3 different rats. (B) Cumulative clinical score/rat obtained following 50 days post-immunization in all groups. AIA rats were treated either after or before (d0) the onset of symptoms. Treatment consisted of p30A, hydrocortisone (HC, 30 mg/rat)) or pCtl (100 mg/rat). Shown are means of cumulative score/rat±s.d. from 5 (HC) or 8 rats (other conditions). (C) Evolution of arthritis severity scores of adjuvant-induced arthritis (AIA) in rats treated with intracutaneous p30A or pCtl (100 mg/rat) or hydrocortisone (after the onset of clinical signs as illustrated by arrows (means from 8 rats, s.e.m.<20%). (D) Histopathologic analysis confirm p30A ability to decrease all components of AIA lesions: pannus formation and inflammation of the synovium (P), deformity of joint and bones (asterix), bone remodeling and destruction (arrowhead), bone neoformation (arrows) and cartilage destruction.
All animal procedures were performed in strict accordance with the guidelines issued by the European Economic Community “86/609”. Female Lewis rats (Janvier, Le Genest St Isle, France) were housed under standard laboratory conditions with free access to food and water. The temperature was kept at 22±2°C and a 12 hour light/dark schedule was maintained.
Adjuvant arthritis was induced in six week-old animals by subcutaneous injection at the base of the tail of 300 µl containing 1.8 mg of inactivated Mycobacterium butyricum (Difco Laboratories, Detroit, MI) diluted in emulsion of 8 ml Vaseline, 1 ml polysorbate 80, and 1 ml PBS (Phosphate Buffer Saline, Eurobio). Rats were boosted one week later following the same procedure. Observation was conducted for up to 50 days following immunization for clinical signs of arthritis. Rats were divided in different groups of 8 rats. Groups were treated with five injections (every 2 days) of either p30A (10, 50 or 100 mg in a PBS solution), pCtl, hydrocortisone (Sigma Aldrich) or PBS solution. Injections were initiated two days after the appearance of first arthritic symptoms (therapeutic) or on the first day of immunization (preventive). Evaluation of AIA severity was performed by two independent observers who where not aware of the study protocol. The severity of AIA in each paw was quantified daily using an ordinal clinical score measurement from 0 to 4 as follows: no signs of inflammation ( = 0); swelling alone (>2 fold paw diameter) ( = 1) or swelling/immobility ( = 2) of one paw; swelling ( = 3) or swelling/immobility ( = 4) of two paws. Weight evolution of rats was measured daily. Rats were sacrificed 50 days after AIA induction. Peritoneal macrophages were collected and incubated in culture medium alone for 48 h. Quantification of TNF-α and IL-1β in rat cell supernatants was performed using appropriate ELISA kits and according to manufacturer's recommendations (Biosource, Montrouge, France).

asthma = conditions: Phase I; cited from earlier work
Excerpt: CD23 was also directly triggered by specific antibodies as therapeutic approach.

[4] = system: peritoneal macrophages of AIA rats; assay: Ex vivo cytokine release from peritoneal macrophages of treated AIA rats, ELISA; format: in vivo, rat, Female Lewis; conditions: treatment after onset of symptoms (AIA+p30A, 10 mg/rat; HC 30 mg/rat); cells collected 50 days post-immunization; 48 h culture; 4 rats
Protocol: AIA rats were treated either after (AIA+p30A) or before (p30A+AIA) the onset of symptoms. Treatment consisted of p30A (10 mg/rat) or hydrocortisone (HC, 30 mg/rat). Rat peritoneal macrophages were collected following 50 days post-immunization, washed and re-incubated in culture medium alone. Cell supernatants were collected 48 h later and cytokine levels were quantified. Macrophages from healthy rats were also incubated in similar conditions. Values are mean±s.d. of cells from 4 different rats.
Adjuvant arthritis was induced in six week-old animals by subcutaneous injection at the base of the tail of 300 µl containing 1.8 mg of inactivated Mycobacterium butyricum (Difco Laboratories, Detroit, MI) diluted in emulsion of 8 ml Vaseline, 1 ml polysorbate 80, and 1 ml PBS (Phosphate Buffer Saline, Eurobio). Rats were boosted one week later following the same procedure. Observation was conducted for up to 50 days following immunization for clinical signs of arthritis. Rats were divided in different groups of 8 rats. Groups were treated with five injections (every 2 days) of either p30A (10, 50 or 100 mg in a PBS solution), pCtl, hydrocortisone (Sigma Aldrich) or PBS solution. Injections were initiated two days after the appearance of first arthritic symptoms (therapeutic) or on the first day of immunization (preventive). […] Rats were sacrificed 50 days after AIA induction. Peritoneal macrophages were collected and incubated in culture medium alone for 48 h. Quantification of TNF-α and IL-1β in rat cell supernatants was performed using appropriate ELISA kits and according to manufacturer's recommendations (Biosource, Montrouge, France).

iNOS = conditions: cited from earlier work
Excerpt: Upon acquisition of CD23 surface expression, human cells may be activated using its biological ligands (e.g. IgE/antigen) or cross-linking with a specific anti-CD23 McAb, [16]. […] To confirm the ability of p30A to inhibit CD23-mediated signaling in human macrophages, we pretreated cells with purified peptides prior to their activation by McAb. Synthetic p30A reduced the levels of inducible nitric oxide syntha ...

SFNYNYA [pCtl, reference compound]
NO (nitrite) generation, dose-dependence ([1]; CD23-McAb 20 µg/ml, 1 h pre-incubation with peptide, supernatants at 72 h, mean of 3 donors (SEM<20%)): no effect
iNOS-mediated NO generation [1]: not observed
IL-6 level ([2]; ELISA, 5 donors): No effect
TNF-α level ([2]; ELISA, 5 donors): No effect
IL-1β level ([2]; FlowCytomix, 2 donors): No effect
IL-8 level ([2]; FlowCytomix, 2 donors): No effect
IL-10 level ([2]; FlowCytomix, 2 donors): No effect
beneficial effect on arthritis [3]: this beneficial effect was not found

lumiliximab: Primate/human CD23-McAb, developed for the treatment of chronic lymphocytic leukemia
clinical outcome, asthma (asthma): promising therapy in Phase I of clinical trials for asthma

C[C@]12CCC(=O)C=C1CC[C@@H]1[C@@H]2[C@@H](O)C[C@@]2(C)[C@H]1CC[C@]2(O)C(=O)CO [hydrocortisone, reference compound]
IL-1β release ex vivo, therapeutic [4]: moderately decreased IL-1β levels

CC(=N)NCCCC[C@H](N)C(=O)O.Cl.Cl [L-NIL, N(6)-(1-iminoethyl)-L-lysine/2HCl, reference compound]
iNOS-mediated NO generation [1]: decreased
iNOS inhibition (iNOS): specific inhibitor of iNOS
